Test results from publication PMC10472371, “Discovery of E2730, a novel selective uncompetitive GAT1 inhibitor, as a candidate for anti‐seizure medication” (Epilepsia Open, 2023).
Where two headings read alike, the source gives them in different places. Marks after values point to notes of the source that are not given here.

Legend:
[1] = test system: corneal kindling mice; settings: cited from earlier work
[2] = target: T1, hNav1.2 (Homo sapiens, UniProt Q99250); test: Veratridine-induced hNav1.2 activation in CHO cells, membrane potential assay; format: cell-based; settings: veratridine 50 μM
T1 construct: expressed in transfected cells; host or cells: CHO
Procedure: Data represent the mean ± SEM of three independent experiments. Effects of E2730 and desipramine (Sigma-Aldrich, MO) on hNav1.2 activity were evaluated in CHO cells stably expressing hNav1.2 using a fluorescent-based membrane potential assay (Molecular Devices, CA). Activation of hNav1.2 was induced by veratridine (50 μM) and the change of fluorescence (excitation wavelength, 480 nm; emission wavelength, 540 nm) was recorded using Fluorescence Drug Screening System 6000 (Hamamatsu Photonics, Japan).

[3] = target: T2, hGABAAR (containing α1, β3, and γ2 subunits) (Homo sapiens, UniProt P14867+P18507+P28472); test: GABA-induced current in hGABAAR-expressing HEK-293 cells, whole-cell patch-clamp; format: cell-based
T2 construct: expressed in transfected cells; host or cells: HEK-293
Procedure: Data represent the mean ± SEM of 3 independent experiments. Control response is GABA (13 μM)-induced current amplitude. […] Cells in voltage clamp were maintained at -80 mV throughout the experiments following the voltage protocol.

[4] = test system: 6 Hz-44 mA psychomotor seizure mice; test: Pharmaco-resistant 6 Hz-44 mA psychomotor seizures in mice; format: in vivo, mouse
Procedure: Psychomotor seizures were stimulated by applying currents (44 mA, 6 Hz, 0.2 millisecond rectangular pulse width, 3‐second duration each) via a corneal electrode (SEN‐7203; Nihon Kohden). E2730 (5–50 mg/kg), levetiracetam (Tokyo Chemical Industry; 20–200 mg/kg), or vehicle was orally administered to ddY mice (male, 5 weeks old; Japan SLC Inc.) 1 hour before electrostimulation. […] Behavioral seizures observed in mice were classified into the following four types: stun, forelimb clonus, twitching of the vibrissae, and Straub‐tail.

[5] = test system: amygdala kindling rats; test: Amygdala kindling in rats; format: in vivo, rat
Text: A tripolar electrode was implanted into the basolateral amygdala of Wistar‐Kyoto rats (male, 7 weeks old; Charles River Laboratories Japan, Japan). After at least 5 days of recovery, the amygdala was stimulated using an electronic stimulator at currents starting at 0.04 mA (50 Hz, 1 millisecond monophasic square‐wave pulses, 1‐second duration each) then increasing by 25% to a 30‐second duration until the after‐discharge threshold (ADT) was attained. ADT was defined as the current at which abnormal electroencephalogram and at least Racine's stage‐1 seizure behavior were observed. In the Racine's stage, seizure severity was classified as: 1, mouth and facial movements; 2, head nodding; 3, forelimb clonus; 4, rearing; 5, rearing and falling. From the next day onwards, electrical stimulation at the previously determined ADT was performed once daily in each rat. The rats showing ≥3 consecutive Racine stage‐5 seizures were deemed epileptic and used for drug evaluation. The pre‐ADT (i.e. baseline) seizure threshold of each rat was established prior to drug administration. After >1 hour following the determination of pre‐ADT seizure threshold, E2730 (5–50 mg/kg), levetiracetam (25 mg/kg), or vehicle was orally administered to the rats. One hour after the administration, the post‐ADT seizure threshold of each rat was ascertained, and the ratios of post‐ADT to pre‐ADT readings were analyzed.

[6] = test system: ddY mice; settings: ref Levy et al.[39]; cited from earlier work
[7] = test system: extracellular GABA concentration in mouse hippocampus; test: Microdialysis: extracellular GABA concentration in mouse hippocampus; format: in vivo; settings: mouse hippocampus, oral; E2730 10-100 mg/kg, tiagabine 3-30 mg/kg
Procedure: A guide cannula was implanted in the left hippocampus (2.7 mm posterior, 3.3 mm left, and 1.8 mm below from the bregma) of ddY mice (male, 5 weeks old). After 5–7 days of recovery, a microdialysis probe (Eicom) was inserted into the left hippocampus through the guide cannula. The tip of the microdialysis probe reached 4.8 mm below the bregma. The next day, the probe was connected to a perfusion tube and perfused with Ringer solution (containing 147.0 mM NaCl, 4.7 mM KCl, 0.6 mM MgSO4, 2.5 mM CaCl2, 5.0 mM HEPES, pH 7.4) at a flow rate of 1.5 μL/min. After ≥160 minutes of perfusion, collection of the perfusate (30 μL/20 min/fraction) was initiated, and 12 fractions per animal were collected for 240 minutes. E2730 (10–100 mg/kg), tiagabine (3–30 mg/kg), or vehicle was orally administered 72 minutes after initiating sample collection. Tiagabine was used as a reference ASM of a non‐competitive GAT1 inhibitor. Perfusate was switched from Ringer solution to high‐potassium Ringer solution (51.7 mM NaCl, 100.0 mM KCl, 0.6 mM MgSO4, 2.5 mM CaCl2, 5.0 mM HEPES, pH 7.4) after 127 minutes following the collection. GABA concentration in each sample was measured by a high‐performance liquid chromatography with tandem mass spectrometry method.

T2 sequence (P14867 28-456): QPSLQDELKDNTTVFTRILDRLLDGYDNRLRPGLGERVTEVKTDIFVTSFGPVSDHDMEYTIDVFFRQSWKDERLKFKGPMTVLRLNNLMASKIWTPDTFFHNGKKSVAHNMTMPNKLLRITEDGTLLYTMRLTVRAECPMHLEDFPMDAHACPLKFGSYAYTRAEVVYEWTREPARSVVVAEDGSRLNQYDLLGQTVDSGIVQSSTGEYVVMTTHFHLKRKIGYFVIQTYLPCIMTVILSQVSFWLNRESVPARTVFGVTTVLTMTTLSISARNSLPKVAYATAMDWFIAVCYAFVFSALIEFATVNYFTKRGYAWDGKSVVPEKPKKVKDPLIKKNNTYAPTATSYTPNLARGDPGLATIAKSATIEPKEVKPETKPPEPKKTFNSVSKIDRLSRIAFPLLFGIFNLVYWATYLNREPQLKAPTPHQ
T2 sequence (P28472 26-473): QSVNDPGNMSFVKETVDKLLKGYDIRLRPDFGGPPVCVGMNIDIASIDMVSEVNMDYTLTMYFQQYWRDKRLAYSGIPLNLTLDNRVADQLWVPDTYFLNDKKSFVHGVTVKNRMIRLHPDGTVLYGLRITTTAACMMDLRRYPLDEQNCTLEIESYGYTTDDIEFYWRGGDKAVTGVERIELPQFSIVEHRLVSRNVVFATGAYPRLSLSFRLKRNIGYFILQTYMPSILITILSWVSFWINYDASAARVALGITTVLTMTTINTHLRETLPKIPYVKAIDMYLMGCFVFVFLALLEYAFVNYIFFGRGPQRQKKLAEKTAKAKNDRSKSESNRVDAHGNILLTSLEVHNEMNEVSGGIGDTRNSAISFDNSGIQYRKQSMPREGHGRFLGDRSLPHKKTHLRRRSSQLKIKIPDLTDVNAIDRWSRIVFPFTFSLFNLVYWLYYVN
T2 sequence (P18507 40-475): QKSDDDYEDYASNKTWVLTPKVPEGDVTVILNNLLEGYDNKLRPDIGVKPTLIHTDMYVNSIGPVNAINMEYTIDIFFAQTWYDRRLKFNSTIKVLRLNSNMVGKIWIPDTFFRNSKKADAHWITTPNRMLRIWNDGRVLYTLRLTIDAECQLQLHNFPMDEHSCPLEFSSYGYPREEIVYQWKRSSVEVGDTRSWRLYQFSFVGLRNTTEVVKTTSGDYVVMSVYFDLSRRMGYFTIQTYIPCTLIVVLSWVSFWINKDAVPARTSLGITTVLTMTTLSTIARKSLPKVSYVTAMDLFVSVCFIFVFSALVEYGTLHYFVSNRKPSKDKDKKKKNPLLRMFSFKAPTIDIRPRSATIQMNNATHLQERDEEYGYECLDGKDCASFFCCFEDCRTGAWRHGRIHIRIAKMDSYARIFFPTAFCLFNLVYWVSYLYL
T1 sequence (Q99250 whole entry): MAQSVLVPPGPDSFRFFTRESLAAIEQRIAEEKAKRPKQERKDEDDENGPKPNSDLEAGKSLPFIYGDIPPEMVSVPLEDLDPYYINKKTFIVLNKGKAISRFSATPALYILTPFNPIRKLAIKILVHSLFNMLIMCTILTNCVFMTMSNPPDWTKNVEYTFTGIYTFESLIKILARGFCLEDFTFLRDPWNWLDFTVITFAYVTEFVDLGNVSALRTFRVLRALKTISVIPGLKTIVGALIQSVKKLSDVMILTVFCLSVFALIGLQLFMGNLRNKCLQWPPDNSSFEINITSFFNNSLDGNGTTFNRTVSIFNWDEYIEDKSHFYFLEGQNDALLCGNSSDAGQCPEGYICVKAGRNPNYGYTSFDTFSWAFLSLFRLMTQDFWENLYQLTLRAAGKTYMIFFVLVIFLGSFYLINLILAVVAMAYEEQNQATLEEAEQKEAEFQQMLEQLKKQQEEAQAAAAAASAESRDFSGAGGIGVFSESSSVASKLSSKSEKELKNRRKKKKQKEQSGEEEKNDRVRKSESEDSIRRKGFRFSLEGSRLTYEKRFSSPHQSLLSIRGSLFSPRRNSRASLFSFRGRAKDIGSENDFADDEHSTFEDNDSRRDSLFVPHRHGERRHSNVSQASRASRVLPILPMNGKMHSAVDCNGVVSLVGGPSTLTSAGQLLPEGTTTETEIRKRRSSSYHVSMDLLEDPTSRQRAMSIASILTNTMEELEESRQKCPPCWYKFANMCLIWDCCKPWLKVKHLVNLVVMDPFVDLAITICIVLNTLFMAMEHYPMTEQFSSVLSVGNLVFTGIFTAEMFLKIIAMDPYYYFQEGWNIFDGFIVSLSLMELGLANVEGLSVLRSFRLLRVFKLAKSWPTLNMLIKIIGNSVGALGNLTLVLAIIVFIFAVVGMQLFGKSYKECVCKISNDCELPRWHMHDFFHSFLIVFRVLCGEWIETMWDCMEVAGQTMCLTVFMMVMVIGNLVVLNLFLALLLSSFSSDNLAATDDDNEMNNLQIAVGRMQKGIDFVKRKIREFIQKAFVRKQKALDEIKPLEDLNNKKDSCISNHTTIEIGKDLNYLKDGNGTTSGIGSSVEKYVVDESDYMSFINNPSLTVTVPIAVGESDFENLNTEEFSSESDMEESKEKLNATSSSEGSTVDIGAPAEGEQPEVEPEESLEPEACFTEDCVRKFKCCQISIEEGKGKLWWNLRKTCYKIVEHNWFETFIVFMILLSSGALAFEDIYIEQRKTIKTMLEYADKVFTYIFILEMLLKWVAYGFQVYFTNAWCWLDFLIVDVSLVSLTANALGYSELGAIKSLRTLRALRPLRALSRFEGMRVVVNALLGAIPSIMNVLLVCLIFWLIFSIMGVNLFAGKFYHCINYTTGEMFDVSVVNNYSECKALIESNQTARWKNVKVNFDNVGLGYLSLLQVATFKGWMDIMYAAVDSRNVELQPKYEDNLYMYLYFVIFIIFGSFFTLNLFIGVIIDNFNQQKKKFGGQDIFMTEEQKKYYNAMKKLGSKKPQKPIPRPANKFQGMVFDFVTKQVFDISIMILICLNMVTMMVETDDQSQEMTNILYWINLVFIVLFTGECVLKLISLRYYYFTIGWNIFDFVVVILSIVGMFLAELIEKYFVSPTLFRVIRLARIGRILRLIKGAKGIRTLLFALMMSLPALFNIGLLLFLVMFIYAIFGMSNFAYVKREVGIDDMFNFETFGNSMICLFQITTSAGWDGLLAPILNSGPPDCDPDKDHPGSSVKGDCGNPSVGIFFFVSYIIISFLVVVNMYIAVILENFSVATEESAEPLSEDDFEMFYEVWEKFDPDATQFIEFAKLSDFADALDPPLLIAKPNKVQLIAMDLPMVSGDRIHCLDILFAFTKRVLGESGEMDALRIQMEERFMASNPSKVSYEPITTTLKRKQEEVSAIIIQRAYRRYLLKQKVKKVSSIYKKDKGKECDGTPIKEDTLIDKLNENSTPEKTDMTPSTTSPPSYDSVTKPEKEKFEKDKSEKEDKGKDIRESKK

Compound: NC(=O)N1c2ccccc2C=Cc2ccccc21 [Carbamazepine, carbamazepine]
- ED50 (95% CI) in corneal kindling mice ([1]; ref Matagne et al.[40]): 9 ^c (5, 11) mg/kg

Compound: O=C1CN=C(c2ccccc2Cl)c2cc([N+](=O)[O-])ccc2N1 [Clonazepam, clonazepam]
- ED50 (95% CI) in corneal kindling mice ([1]; ref Matagne et al.[40]): 0.04 ^c (0.02, 0.07) mg/kg

Compound: CNCCCN1c2ccccc2CCc2ccccc21 [Desipramine, desipramine, reference compound]
- IC50 [2]: 4.9 µM

Compound: CN1C(=O)CN=C(c2ccccc2)c2cc(Cl)ccc21 [Diazepam, diazepam]
- Emax at 1 µM ([3]; HEK293, read-out: Emax, potentiation of GABA-induced current amplitude): 218%

Compound: CCC1(C)CC(=O)NC1=O (stereo not shown) [Ethosuximide, ethosuximide]
- ED50 (95% CI) in corneal kindling mice ([1]; ref Matagne et al.[40]): >254 ^c mg/kg

Compound: CC[C@@H](C(N)=O)N1CCCC1=O [Levetiracetam, levetiracetam]
- ED50 ([4]; Mus musculus, oral, 1 hour before electrostimulation, ddY mice, read-out: ED50 (95% CI), 6 Hz-44 mA psychomotor seizures): > 200 mg/kg
- anti-seizure efficacy in 6 Hz-44 mA psychomotor seizures ([4]; levetiracetam 20-200 mg/kg oral): did not show ≥50% efficacy
- post-ADT/pre-ADT ratio ([5]; levetiracetam 25 mg/kg oral): 127%
- Minimum effective dose, amygdala kindling (rat) ([5]; oral, footnote a: minimum effective dose): 25 mg/kg
- ED50 (95% CI) in corneal kindling mice ([1]; ref Matagne et al.[40]): 16 ^c (6, 43) mg/kg
- TD50 (95% CI) in mouse rotarod test [6]: >500 ^b mg/kg

Compound: CCC1(c2ccccc2)C(=O)NC(=O)NC1=O [Phenobarbital, phenobarbital]
- ED50 (95% CI) in corneal kindling mice ([1]; ref Matagne et al.[40]): 11 ^c (7, 15) mg/kg

Compound: Cc1ccsc1C(=CCCN1CCC[C@@H](C(=O)O)C1)c1sccc1C [Tiagabine, tiagabine, reference compound]
- ED50 (95% CI) in corneal kindling mice ([1]; ref Madsen et al.[38]): 0.51 ^a mg/kg
- effect on basal extracellular GABA concentration [7]: significantly increased
- effect on high-potassium-induced extracellular GABA concentration [7]: significantly increased
- EC50 ([3]; GABA 13 μM, -80 mV, read-out: EC50, potentiation of GABA-induced current amplitude): 4.8 µM
- Emax at 100 µM ([3]; HEK293, at 100 μM, control response GABA (13 μM)-induced current, read-out: Emax, potentiation of GABA-induced current amplitude): 153%
- TD50 (95% CI) in mouse rotarod test [6]: 1.29 ^b mg/kg

Compound: CCCC(CCC)C(=O)O [Valproate, valproate]
- ED50 (95% CI) in corneal kindling mice ([1]; ref Matagne et al.[40]): 110 ^c (83, 143) mg/kg
